Source: patent publication US20200157195A1, “14-3-3 Antagonists for the Prevention and Treatment of Arthritis” (THE UNIVERSITY OF BRITISH COLUMBIA, priority 2007, published 2020)
The star is where a group is joined. Biotin = O=C1N[C@H]2[C@H](CS[C@H]2CCCCC(=O)*)N1

Tests used:
[1] = test system: MMP-1 expression in dermal fibroblasts induced by extracellular 14-3-3 protein; test: MMP-1 expression in dermal fibroblasts treated with KLCCM after R-18 pull-down of 14-3-3 proteins; format: cell-based
Source text: The KLCCM used in these experiments was taken from day 28 of cell transdifferentiation due to their high capacity of inducing MMP-1 expression in dermal fibroblasts (data not shown). […] As negative control, dermal fibroblasts treated with medium that was not conditioned (DMEM (49%), KSFM (49%) plus 2% FBS) were used (“Pull-down”−).

[2] = test system: association of 14-3-3 proteins with Raf-1; settings: Wang et al. 1999; cited from earlier work

Substance	reduction of MMP-1 expression ([1]; pre-treatment of KLCCM with biotinylated R-18 and avidin sepharose (pull-down), dermal fibroblasts, MMP-1/β-actin densitometry)	inhibition of induction of MMP-1 expression by extracellular 14-3-3 protein (in words) ([1]; FIG. 5 legend)	blocking the association of 14-3-3 proteins with Raf-1 [2]
Biotin-PHCVPRDLSWLDLEANMCLP-OH (cysteine pairing not given here) [biotinylated R-18]	68.8%		
R-18: small peptide 14-3-3 antagonist (Wang et al. 1999) capable of blocking the association of 14-3-3 proteins with Raf-1 (Biotin-PHCVPRDLSWLDLEANMCLP-OH; not fully specified; cysteine pairing not given here)		inhibits induction of MMP-1 expression	capable of blocking the association of 14-3-3 proteins with Raf-1
